Tests used:
[1] = food pH 5.4; cited from earlier work
[2] = system: bacteria, mold, and yeast; assay: Carbon dioxide production of tortillas from treated dough; details: antimicrobial added to propionic/phosphoric acid preparation
Excerpt: In the laboratory, shelf life of varying formulations of tortillas can be compared by monitoring the output of carbon dioxide produced by the bacteria, mold, and yeast.
Tortillas were then manufactured from the treated dough.

| Structure (SMILES) | acid undissociated [1] [%] | effectiveness in controlling fermented odor / preventing spoilage [2] |
| --- | --- | --- |
| CCC(=O)O [propionic acid] | 20 |  |
| O=C(O)c1ccccc1 [benzoic acid] | 7.75 | best qualities for preventing spoilage |
